According to the supplement of paper PMC5908809:

Experiments:
[1] = test system: normal NK cells expanded with K562-aAPC; assay: percent inhibition of viability; higher = more inhibition; settings: 72 h, IL-2 2.5 ng/mL
Protocol: (§1)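 Drug sensitivity and resistance testing on K562-aAPC-expanded normal NK cells: 5 concentrations (10-fold steps over a 10,000-fold range), 72 h at 37 °C, viability by CellTiter-Glo normalised to DMSO and benzethonium chloride controls; DSS from the fitted curve.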

[2] = test system: KHYG-1 (IL-2 2.5 ng/mL); assay: drug sensitivity score (DSS) (DSS units); higher = more sensitive; extreme values may be limits of the assay; settings: 72 h
[3] = test system: NK-92 (IL-2 2.5 ng/mL); assay: as above; settings: 72 h
[4] = test system: SNK-6 (IL-2 2.5 ng/mL); assay: as above; settings: 72 h
[5] = test system: NKL (IL-2 2.5 ng/mL); assay: as above; settings: 72 h
[6] = test system: normal primary NK cells, pool 1 (3 donors) (IL-2 2.5 ng/mL); assay: as above; settings: 72 h
[7] = test system: normal primary NK cells, pool 1 (3 donors), resting (IL-2 0 ng/mL); assay: as above; settings: 72 h
[8] = test system: normal primary NK cells, pool 2 (3 donors) (IL-2 2.5 ng/mL); assay: as above; settings: 72 h
[9] = test system: KAI3 (IL-2 2.5 ng/mL); assay: as above; settings: 72 h
[10] = test system: IMC-1 (IL-2 20 ng/mL); assay: as above; settings: 72 h
[11] = test system: DERL-7 (IL-2 2.5 ng/mL); assay: as above; settings: 72 h
[12] = test system: normal primary NK cells, pool 3 (3 donors) (IL-2 2.5 ng/mL); assay: as above; settings: 72 h
[13] = test system: YT (IL-2 2.5 ng/mL); assay: as above; settings: 72 h
[14] = test system: NK-YS (IL-2 2.5 ng/mL); assay: as above; settings: 72 h
[15] = test system: KHYG-1 (IL-2 2.5 ng/mL); assay: percent inhibition of viability; higher = more inhibition; settings: 72 h
[16] = test system: NK-92 (IL-2 2.5 ng/mL); assay: as above; settings: 72 h
[17] = test system: SNK-6 (IL-2 2.5 ng/mL); assay: as above; settings: 72 h
[18] = test system: NKL (IL-2 2.5 ng/mL); assay: as above; settings: 72 h
[19] = test system: normal primary NK cells, pool 1 (3 donors) (IL-2 2.5 ng/mL); assay: as above; settings: 72 h
[20] = test system: normal primary NK cells, pool 1 (3 donors), resting (IL-2 0 ng/mL); assay: as above; settings: 72 h
[21] = test system: normal primary NK cells, pool 2 (3 donors) (IL-2 2.5 ng/mL); assay: as above; settings: 72 h
[22] = test system: KAI3 (IL-2 2.5 ng/mL); assay: as above; settings: 72 h
[23] = test system: IMC-1 (IL-2 20 ng/mL); assay: as above; settings: 72 h
[24] = test system: DERL-7 (IL-2 2.5 ng/mL); assay: as above; settings: 72 h
[25] = test system: normal primary NK cells, pool 3 (3 donors) (IL-2 2.5 ng/mL); assay: as above; settings: 72 h
[26] = test system: YT (IL-2 2.5 ng/mL); assay: as above; settings: 72 h
[27] = test system: NK-YS (IL-2 2.5 ng/mL); assay: as above; settings: 72 h
[28] = test system: normal NK cells expanded with K562-aAPC; assay: drug sensitivity score (DSS) (DSS units); higher = more sensitive; extreme values may be limits of the assay; settings: 72 h; IL-2 2.5 ng/mL
Protocol: as §1

Nc1ncn([C@@H]2O[C@H](CO)[C@@H](O)[C@H]2O)c(=O)n1 [Azacitidine] (max concentration tested 10000 nM)
percent inhibition of viability [%]
Settings | 1 nM | 10 nM | 100 nM | 1000 nM | 10000 nM
[1] | -4.42 | -10.9 | -6.84 | 4.72 | 60.3
[15] | -4.59 | -3.23 | 2.46 | 23.2 | 89.6
[16] | -4.17 | -12.4 | -0.66 | 23.1 | 83.7
[17] | -3.1 | 1 | 15.7 | 47.1 | 67.8
[18] | -16.7 | -17.1 | -14.1 | -11.2 | 65.5
[19] | -2.2 | -10.3 | 1.35 | 9.04 | 30.6
[20] | -3.24 | -12.3 | 5.31 | 4.81 | 27.4
[21] | -6.68 | -8.85 | -5.14 | -3.32 | 29.2
[22] | -2.09 | -1.87 | 2.62 | 26.2 | 60.5
[23] | -6.44 | -3.39 | 2.53 | -7.92 | 82.7
[24] | 2.03 | 3.15 | 2.51 | 24.5 | 85.6
[25] | -6.45 | -3.68 | -2.24 | -3.82 | 25.5
[26] | -1.86 | -3.15 | -1.98 | -0.51 | 28
[27] | -2.67 | -1.33 | 3.5 | 15.9 | 67.6

Settings | drug sensitivity score
[2] | 8.51
[3] | 8.11
[4] | 10.7
[5] | 2.92
[6] | 2.65
[7] | 1.88
[8] | 1.04
[9] | 6.42
[10] | 4.03
[11] | 8.4
[12] | 0.77
[13] | 1.12
[14] | 6.22
[28] | 4

C=C1C[C@@H]2[C@H](CC[C@]3(C)C(=O)CC[C@@H]23)[C@@]2(C)C=CC(=O)C=C12 [Exemestane] (max concentration tested 10000 nM)
percent inhibition of viability [%]
Settings | 1 nM | 10 nM | 100 nM | 1000 nM | 10000 nM
[1] | -3.29 | -0.41 | 3.42 | 12.7 | 35.6
[15] | -6.37 | 13.7 | -2.18 | 12.3 | 29.8
[16] | -2.32 | 9.27 | 5.72 | 8.66 | 44.8
[17] | -1.73 | 3.81 | 3.19 | 27.1 | 40.9
[18] | -3.13 | 9.66 | -3.12 | 3.19 | 14.4
[19] | -3.16 | -4.6 | 2.49 | -8.32 | 47.6
[20] | 3.47 | -11.3 | -6.56 | -1.56 | 75.8
[21] | -7.91 | -3.9 | 6.14 | 2.28 | 47.6
[22] | 0.1 | 9.66 | 6.63 | 5.02 | 42
[23] | -4.22 | 2.93 | 0.3 | 7.31 | 12.9
[24] | -0.04 | 2.07 | -0.5 | 8.21 | 26.2
[25] | -5.22 | -9.04 | 7.22 | 1.19 | 30.5
[26] | -3.57 | 11.7 | -3.54 | 1.89 | 7.92
[27] | -2.57 | 3.99 | 3.16 | 2.81 | 18.9

Settings | drug sensitivity score
[2] | 2.88
[3] | 3.74
[4] | 5.29
[5] | 0.48
[6] | 1.99
[7] | 4.06
[8] | 2.8
[9] | 2.96
[10] | 0.35
[11] | 2.16
[12] | 1.49
[13] | 0
[14] | 0.88
[28] | 3.07
